The results in this text go back to US20050009840A1 (SUGEN, INC., priority 2003, published 2005).

In general, pIC50 refers to the IC50 on a negative log10 scale, so that one unit is a factor of ten. As usually defined, the IC50 is the midpoint of a concentration-inhibition curve.

pIC50: −log10 of the molar value. A value given as a limit tells only on which side of the number the result lay.

T1 sequence (P08581 1078-1345 limits assumed): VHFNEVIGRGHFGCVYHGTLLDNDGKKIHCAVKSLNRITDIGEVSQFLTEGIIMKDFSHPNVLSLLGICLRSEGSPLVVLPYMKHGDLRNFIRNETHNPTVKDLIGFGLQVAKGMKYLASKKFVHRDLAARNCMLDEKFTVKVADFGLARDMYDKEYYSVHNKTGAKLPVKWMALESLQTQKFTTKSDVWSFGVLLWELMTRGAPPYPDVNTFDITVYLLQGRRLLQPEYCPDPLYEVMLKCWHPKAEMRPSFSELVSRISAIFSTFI

One assay has as its target T1, Met kinase domain (GST fusion protein) (Homo sapiens, UniProt P08581).
T1 construct: Purified GST fusion protein containing the Met kinase domain
The assay can be described thus: Met transphosphorylation assay (ELISA, poly(glu-tyr) substrate).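 Further: Cell-free ELISA with plate-bound poly(Glu:Tyr 4:1) phosphorylated by GST-fused Met kinase domain plus ATP and Mn2+, phosphotyrosine detected by anti-phosphotyrosine antibody with HRP and ABTS read-out.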 The assay is classed as biochemical. Conditions: Table 2; read-out: Met IC50.
In the case of `Nc1ncc(-c2ccc(N3CCCS3(=O)=O)cc2)cc1OCc1c(F)ccc(F)c1Cl` [Example I-240, 3-(2-Chloro-3,6-difluoro-benzyloxy)-5-[4-(1,1-dioxo-1λ^6-isothiazolidin-1-yl)-phenyl]-pyridin-2-ylamine], the pIC50 is 7.00. As to `Nc1ncc(-c2cccc(C(=O)NCCN3CCCC3)c2)cc1OCc1c(F)ccc(F)c1Cl` [Example I-235, 3-[6-Amino-5-(2-chloro-3,6-difluoro-benzyloxy)-pyridin-3-yl]-N-(2-pyrrolidin-1-yl-ethyl)-benzamide], the pIC50 is 6.59. Same read-out and setting: the result for `CC(Oc1cc(-c2ccc(C(=O)NCCN3CCOCC3)cc2)cnc1N)c1c(F)ccc(F)c1Cl` (centres unmarked) [Example I-331, 4-{6-Amino-5-[1-(2-chloro-3,6-difluoro-phenyl)-ethoxy]-pyridin-3-yl}-N-(2-morpholin-4-yl-ethyl)-benzamide] reads 6.89; that for `CC(Oc1cc(-c2cccc(C(=O)NC3CCN(C)CC3)c2)cnc1N)c1c(Cl)ccc(F)c1Cl` (centres unmarked) [Example I-313, 3-{6-Amino-5-[1-(2,6-dichloro-3-fluoro-phenyl)-ethoxy]-pyridin-3-yl}-N-(1-methyl-piperidin-4-yl) benzamide], 7.16; that for `CC(C)(C)c1ccc(COc2cc(-c3ccc(C(=O)NCCN4CCOCC4)cc3)cnc2N)cc1` [Example I-200, 4-[6-Amino-5-(4-tert-butyl-benzyloxy)-pyridin-3-yl]-N-(2-morpholin-4-yl-ethyl)-benzamide], 5.16.

Consider `Nc1ncc(-c2ccc(C(=O)N3CCC(N)CC3)cc2)cc1OCc1c(F)ccc(F)c1Cl` [Example I-214, {4-[6-Amino-5-(2-chloro-3,6-difluoro-benzyloxy)-pyridin-3-yl]-phenyl}-(4-amino-piperidin-1-yl)-methanone], for which the pIC50 is 7.00.

On to `CC(Oc1cc(-c2ccc(NS(=O)(=O)CCN3CCC(O)CC3)cc2)cnc1N)c1c(F)ccc(F)c1Cl` (centres unmarked) [Example I-287, 2-(4-Hydroxy-piperidin-1-yl)-ethanesulfonic acid (4-{6-amino-5-[1-(2-chloro-3,6-difluoro-phenyl)-ethoxy]-pyridin-3-yl}-phenyl)-amide], for which the pIC50 is 6.85. Same read-out and setting: the result for `CN1CCN(C(=O)c2ccc(-c3cnc(N)c(OCc4c(F)ccc(F)c4Cl)c3)cc2)CC1` [Example I-212, {4-[6-Amino-5-(2-chloro-3,6-difluoro-benzyloxy)-pyridin-3-yl]-phenyl}-(4-methyl-piperazin-1-yl)-methanone] reads 7.20.

For `CCN(CC)CCNC(=O)c1ccc(-c2cnc(N)c(OC(C)c3c(Cl)ccc(F)c3Cl)c2)cc1` (centres unmarked) [Example I-309, 4-{6-Amino-5-[1-(2,6-dichloro-3-fluoro-phenyl)-ethoxy]-pyridin-3-yl}-N-(2-diethylamino-ethyl)-benzamide], the pIC50 is 7.40. Regarding `CC(Oc1cc(-c2cccc(C(=O)NCCN3CCOCC3)c2)cnc1N)c1c(Cl)ccc(F)c1Cl` (centres unmarked) [Example I-321, 3-{6-Amino-5-[1-(2,6-dichloro-3-fluoro-phenyl)-ethoxy]-pyridin-3-yl}-N-(2-morpholin-4-yl-ethyl)-benzamide], the pIC50 is 6.74. As for `CC(Oc1cc(-c2ccc(NS(=O)(=O)CCNC3CC3)cc2)cnc1N)c1c(F)ccc(F)c1Cl` (centres unmarked) [Example I-328, 2-Cyclopropylamino-ethanesulfonic acid (4-{6-amino-5-[1-(2-chloro-3,6-difluoro-phenyl)-ethoxy]-pyridin-3-yl}-phenyl)-amide], the pIC50 is 6.80.

Consider `CC(Oc1cc(-c2ccc(C(=O)NC3CCN(C)CC3)cc2)cnc1N)c1c(F)ccc(F)c1Cl` (centres unmarked) [Example I-332, 4-{6-Amino-5-[1-(2-chloro-3,6-difluoro-phenyl)-ethoxy]-pyridin-3-yl}-N-(1-methyl-piperidin-4-yl)-benzamide], for which the pIC50 was 7.10.

The assay is the same for the next values; noted with them: plain numbers in column Met IC50 (μM) of Table 2; read-out: Met IC50.
As for `Nc1ncc(-c2cncnc2)cc1OCc1ccccc1` [Example I-490, 3-Benzyloxy-5-pyrimidin-5-yl-pyridin-2-ylamine], the IC50 was greater than 20 µM. Turning to `CC(Oc1cc(-c2cccc(C(=O)N3CCC(N4CCCC4)CC3)c2)cnc1N)c1c(Cl)cccc1Cl` (centres unmarked) [Example I-388, (3-{6-Amino-5-[1-(2,6-dichloro-phenyl)-ethoxy]-pyridin-3-yl}-phenyl)-(4-pyrrolidin-1-yl-piperidin-1-yl)-methanone], the IC50 amounted to 0.1 µM. The same measure, in the same setting: the result for `CC(Oc1cc(O)cnc1N)c1c(F)ccc(F)c1Cl` (centres unmarked) [Example I-535, 6-Amino-5-[1-(2-chloro-3,6-difluoro-phenyl)-ethoxy]-pyridin-3-ol] reads 0.54 µM; that for `CC(=O)N1CCN(CCNC(=O)c2ccc(-c3cnc(N)c(OC(C)c4c(Cl)cccc4Cl)c3)cc2)CC1` (centres unmarked) [Example I-405, N-[2-(4-Acetyl-piperazin-1-yl)-ethyl]-4-{6-amino-5-[1-(2,6-dichloro-phenyl)-ethoxy]-pyridin-3-yl}-benzamide], 0.062 µM.

Regarding `CC(Oc1cc(-c2cccc(C(=O)N3CCN(C)CC3)n2)cnc1N)c1c(F)ccc(F)c1Cl` (centres unmarked) [Example I-519, {6′-Amino-5′-[1-(2-chloro-3,6-difluoro-phenyl)-ethoxy]-[2,3′]bipyridinyl-6-yl}-(4-methyl-piperazin-1-yl)-methanone], the IC50 is 0.466 µM. Regarding `CC(Oc1cc(C#CCNC(=O)N2CCN(C)CC2)cnc1N)c1c(Cl)ccc(F)c1Cl` (centres unmarked) [Example I-413, 4-Methyl-piperazine-1-carboxylic acid (3-{6-amino-5-[1-(2,6-dichloro-3-fluoro-phenyl)-ethoxy]-pyridin-3-yl}-prop-2-ynyl)-amide], the IC50 worked out at 0.056 µM. Same read-out and setting: the result for `CC(Oc1cc(-c2cc(C(=O)N3CCN(C)CC3)ccn2)cnc1N)c1c(Cl)ccc(F)c1Cl` (centres unmarked) [Example I-511, {6′-Amino-5′-[1-(2,6-dichloro-3-fluoro-phenyl)-ethoxy]-[2,3′]bipyridinyl-4-yl}-(4-methyl-piperazin-1-yl)-methanone] reads 0.0742 µM. `Nc1ncc(-c2cncnc2)cc1OCc1c(Cl)cccc1Cl` [Example I-508, 3-(2,6-Dichloro-benzyloxy)-pyrimidin-5-yl-pyridin-2-ylamine]: the IC50 was 10.3 µM. For the compound `CC(Oc1cc(C#CCNC(=O)NCCN2CCCC2)cnc1N)c1c(Cl)ccc(F)c1Cl` (centres unmarked) [Example I-418, 1-(3-{6-Amino-5-[1-(2,6-dichloro-3-fluoro-phenyl)-ethoxy]-pyridin-3-yl}-prop-2-ynyl)-3-(2-pyrrolidin-1-yl-ethyl)-urea], the IC50 came to 0.052 µM.

Staying with this assay, now noted: read-out: Met IC50.
As for `CC(Oc1nc(-c2cccc(C(=O)NCCN3CCCC3)c2)cnc1N)c1c(Cl)cccc1Cl` (centres unmarked) [II-170, 3-{5-Amino-6-[1-(2,6-dichloro-phenyl)-ethoxy]-pyrazin-2-yl}-N-(2-pyrrolidin-1-yl-ethyl)-benzamide], the pIC50 is 6.48. On the same count and under the same terms, next, `Nc1ncc(-c2ccccc2)cc1OCc1ccc(F)cc1Cl` [Example I-89, 3-(2-Chloro-4-fluoro-benzyloxy)-5-phenyl-pyridin-2-ylamine]: 4.77; `CC(Oc1nc(-c2cncc(C(=O)NCCCN3CCOCC3)c2)cnc1N)c1c(Cl)ccc(F)c1Cl` (centres unmarked) [II-210, 5-{5-Amino-6-[1-(2,6-dichloro-3-fluoro-phenyl)-ethoxy]-pyrazin-2-yl}-N-(3-morpholin-4-yl-propyl)-nicotinamide]: 7.66. On the same count and under the same terms, the result for `CC(Oc1nc(-c2ccc(OCCN3CCOCC3)cc2)cnc1N)c1c(F)ccc(F)c1Cl` (centres unmarked) [II-70] reads 6.29; that for `Nc1ncc(-c2ccc(O)cc2)cc1OCc1c(F)cccc1Cl` [Example I-128, 4-[6-Amino-5-(2-chloro-6-fluoro-benzyloxy)-pyridin-3-yl]-phenol], 5.40; that for `CC(Oc1nc(-c2ccc(C(=O)NC3CCN(C)CC3)cc2)cnc1N)c1c(Cl)ccc(F)c1Cl` (centres unmarked) [II-150, 4-{5-Amino-6-[1-(2,6-dichloro-3-fluoro-phenyl)-ethoxy]-pyrazin-2-yl}-N-(1-methyl-piperidin-4-yl)-benzamide], 7.17. Same read-out and setting: next, `Nc1ncc(Br)cc1OCc1c(F)cccc1Cl` [I(e), 5-Bromo-3-(2-chloro-6-fluoro-benzyloxy)-pyridin-2-ylamine]: 4.70; `CC(Oc1nc(-c2ccc(NC(=O)NCCO)cc2)cnc1N)c1c(F)ccc(F)c1Cl` (centres unmarked) [II-186, 1-(4-{5-Amino-6-[1-(2-chloro-3,6-difluoro-phenyl)-ethoxy]-pyrazin-2-yl}-phenyl)-3-(2-hydroxy-ethyl)-urea]: 6.68; `CN1CCN(C(=O)c2ccc(-c3cnc(N)c(OCc4c(F)ccc(F)c4Cl)n3)cc2)CC1` [II-46, {4-[5-Amino-6-(2-chloro-3,6-difluoro-benzyloxy)-pyrazin-2-yl]-phenyl}-(4-methyl-piperazin-1-yl)-methanone]: 6.17.

On to `Nc1ncc(-c2cccc(C(=O)N3CC[C@@H](N)C3)c2)nc1OCc1c(F)ccc(F)c1Cl` [II-49, {3-[5-Amino-6-(2-chloro-3,6-difluoro-benzyloxy)-pyrazin-2-yl]-phenyl}-[(3R)-3-amino-pyrrolidin-1-yl]-methanone], for which the negative-log IC50 (pIC50) is 5.99. Consider `Nc1ncc(-c2ccc(C(=O)NCCN3CCOCC3)cc2)cc1OCc1ccccc1Cl` [Example I-158, 4-[6-Amino-5-(2-chloro-benzyloxy)-pyridin-3-yl]-N-(2-morpholin-4-yl-ethyl)-benzamide], for which the pIC50 was 5.05. Still for that read-out and setting: next, `CC(Oc1nc(-c2cccc(C(=O)N3CC[C@@H](N)C3)c2)cnc1N)c1c(Cl)ccc(F)c1Cl` (stereo partly drawn) [II-85, (3-{5-Amino-6-[1-(2,6-dichloro-3-fluoro-phenyl)-ethoxy]-pyrazin-2-yl}-phenyl)-[(3R)-3-amino-pyrrolidin-1-yl)-m-ethanone]: 6.96; `Nc1ccc(-c2cnc(N)c(OCc3c(Cl)cccc3Cl)n2)cc1` [II-5, 5-(4-Amino-phenyl)-3-(2,6-dichloro-benzyloxy)-pyrazin-2-ylamine]: 6.03. Still for that read-out and setting: next, `CC(=O)N1CCN(C(=O)c2ccc(-c3cnc(N)c(OCc4ccccc4C#N)c3)cc2)CC1` [Example I-167, 2-{5-[4-(4-Acetyl-piperazine-1-carbonyl)-phenyl]-2-amino-pyridin-3-yloxymethyl}-benzonitrile]: 5.24.
